Test results taken from US7371364B2, “Cyclic peptide and imaging compound compositions and uses for targeted imaging and therapy” (Board of Regents, The University of Texas System, priority 2003, dated 2008).
pIC50: −log10 of the molar value. Residues, ends and D or L forms follow the SMILES beside them.

Assays:
KS1767 cells = format: cell-based; settings: 1 h
Protocol: A Cell Adhesion Assay was additionally performed. KS1767 cells were seeded in DMEM/F12 culture medium supplemented with 10% fetal bovine serum for 24 hr. Cells (1×10^5) with different concentrations of c(KRGDf; SEQ ID NO. 3) or Cy5.5-c(KRGDf; SEQ ID NO. 3) were added to vitronectin-coated microliter wells under serum-free conditions and incubated at 37° C. for 1 hr. After washing steps, the bound cells were stained with 5% crystal violet, followed by addition of 0.1M HCl to each well. The concentrations of crystal violet were determined by UV/V is absorption at 627 nm. IC50 values were estimated from the dose-activity curves.

αvβ3 integrin = molecular target: T1, αvβ3 integrin (Homo sapiens, UniProt P05106+P06756); test: In vitro blockage study of Cy5.5-c(KRGDf) binding to KS1767 cells (fluorescence microscopy); format: cell-based
T1 construct: endogenous in cells; host or cells: KS1767 sarcoma cells
Protocol: KS1767 sarcoma cells were maintained at 37° C. in a humidified atmosphere containing 5% CO2 in Dulbecco's Modified Eagle's Medium/Nutrient Mixture F-12 Ham (DMEM/F12) and 10% FBS (Gibco, Grand Island, N.Y.).
Cells were seeded on cover slips in 24-well plates (Becton Dickinson Labware, Franklin Lakes, N.J.) and incubated in DMEM/F12 culture medium (0.5 ml/well) overnight. Unconjugated c(KRGDf; SEQ ID NO. 3) was added to the culture medium at various concentrations. Cy5.5-c(KRGDf; SEQ ID NO. 3) was added one hour later to each well at a concentration of 6 μM. Cells were washed twice with PBS and incubated in a solution of Sytox Green in 95% ethyl alcohol (1 μM, Molecular Probe, Eugene, Oreg.) for 15 minutes to fix and stain cell nuclei. Cells were washed again with PBS and the cover slips were mounted for microscopic examination using a DMR microscope (Leica Microsystems Inc., Bannockburn, Ill.). The microscope was equipped with a 75W Xenon lamp, 775 nm/845 nm, 560 nm/645 nm, and 480 nm/535 nm (Excitation/emission) filters (Chroma Technology Corp., Brattleboro, Vt.), a Hamamatsu B/W Chilled CCD Camera (Hamamatsu Photonics K.K., Hamamatsu City, Japan), and an Image-Pro Plus 4.5.1 software (Media Cybernetics, Silver Spring, Md.). In the multiple staining images, Cy5.5 was pseudocolored red and Sytox Green was green.

KS1767 tumors [1] = test: In vivo NIR imaging of subcutaneous KS1767 tumors with RGD imaging agent; set-up: species or system mice
From the text: Cy5.5-c(KRGDf; SEQ ID NO. 3) may be used in near infrared (NIR) imaging. Mice inoculated with KS1767 were used for in vivo NIR studies. The mice were four to six week-old athymic nude mice (18-22 g, Harlan Sprague Dawley, Inc. Indianapolis, Ind.) which were housed 5 per cage and fed with sterilized pellet chow (Harlan Sprague Dawley) and sterilized water. The animals were maintained in a pathogen-free mouse colony in the Department of Veterinary Medicine at the University of Texas M.D. Anderson Cancer Center. All experiments were performed in accordance with the guidelines of the Institutional Animal Care and Use Committee.
Tumor cells for use in the animals were harvested near confluence by incubation with 0.05% trypsin-EDTA. Cells were pelleted by centrifugation at 450×g for 5 minutes and resuspended in sterile PBS. […] cells/animal were implanted subcutaneously into the chest wall or hind legs of the mice. Imaging studies were performed when tumors reached 4-6 mm in average diameter.
(§1) In vivo fluorescence imaging was accomplished by illuminating the animal with light from a laser diode (35 mW) expanded to an approximate 8 cm diameter circular area. The fluorescent light re-emitted from the animal was collected by an image intensifier (model FS9910C, ITT Night Vision, Roanoke, Va.) lens-coupled to a CCD camera (model CH350, Photometrics, Tucson, Ariz.). The imaging was designed so that the field of view could be varied from 3×3 cm to over 12×12 cm by varying the image distance of the 50 mm lens used to focus the image onto the photocathode of the intensifier. The lens was fitted with a holographic notch-plus filter (660 nm center wavelength; Kaiser Optical Systems, Inc., Ann Arbor, Mich.) and a bandpass filter (710 nm center wavelength) to reject back-scattered and reflected excitation photons. Image acquisition was accomplished using V++ software (Digital Optics, Auckland, New Zealand) and the obtained images were stored in uncompressed tagged image file format (tiff). Data processing and analysis were accomplished using Matlab software (The MathWorks, Inc., Natick, Mass.). For all imaging sessions, the image acquisition parameters were kept constant, and each image required 800 ms of camera integration.
For dynamic in vivo fluorescence imaging, mice were anesthetized with an i.p. injection of 50 mg/kg pentobarbital, and a catheter was placed in the tail vein for i.v. injection of NIR dyes. A white-light image of the animal was obtained using a low-power lamp as a white light source with holographic and interference filters removed. Fluorescence images were then acquired as a function of time following administration of Cy5.5 (6 nmol per/mouse) or Cy5.5-c(KRGDf; SEQ ID NO. 3) (6 nmol per/mouse). […]

KS1767 tumors [2] = test: Dynamic in vivo NIR imaging, tumor ROI versus normal muscle ROI; set-up: species or system mice
Protocol: For dynamic in vivo fluorescence imaging, mice were anesthetized with an i.p. injection of 50 mg/kg pentobarbital, and a catheter was placed in the tail vein for i.v. injection of NIR dyes. A white-light image of the animal was obtained using a low-power lamp as a white light source with holographic and interference filters removed. Fluorescence images were then acquired as a function of time following administration of Cy5.5 (6 nmol per/mouse) or Cy5.5-c(KRGDf; SEQ ID NO. 3) (6 nmol per/mouse). For blocking studies, c(KRGDf; SEQ ID NO. 3) (600 nmol/mouse) was injected intravenously at 1 hr and 24 hr prior to the injection of Cy5.5-c(KRGDf; SEQ ID NO. 3). The acquisition time was 800 ms. Images were obtained every 6 seconds (s) for up to 20 minutes (min) following injection of each imaging agent. Each mouse was imaged again 24 hr after contrast injection.
Two regions of interest (ROI) were selected for quantitative analyses. One ROI was located entirely within the circumference of the tumor, and the other, of approximate equivalent size, defined a symmetric region of normal tissue located opposite the tumor site. (See FIG. 32A.) Utilizing Matlab software, the mean of the fluorescence intensity within each ROI was computed for every fluorescence image acquired. Data were acquired from the tumor ROI. (See FIG. 32B.) Data were acquired from normal muscle ROI. […] The symbols denote experimental measurements while the solid line denotes the corresponding least-squares fit. Animals were injected with Cy5.5-c(KRGDf; SEQ ID NO. 3) alone (6 nmol) (□), or Cy5.5-cc(KRGDf; SEQ ID NO. 3) 1 hr (∘) and 24 hr (⋄) after the injection of unconjugated c(KRGDf; SEQ ID NO. 3) peptide (600 nmol).

[3] = Stability assay in serum-containing culture medium (HPLC); format: in vitro ADME; settings: 25° C.; for Degradation in culture medium: 3 hours
Protocol: Each test peptide was incubated in a serum-containing culture medium (Dulbecco's Modified Eagle's Medium/Nutrient Mixture F-12 Ham and 10% FBS) (1 mg/ml) at 25° C. At various time intervals, aliquots of peptide solution (50 μL) were withdrawn and subjected to HPLC analysis. The percentage of remaining intact peptide was recorded as a function of time.

[4] = test system: integrin-positive M21 melanoma; test: In vivo NIR imaging of human melanoma xenograft, integrin-positive; set-up: species or system mice; settings: for Visualization of tumor in NIR image: M21 melanoma, 24 hr after i.v. injection, 3 nmol/mouse
From the text: as §1

[5] = molecular target: αvβ3 integrin (on KS1767 cells) (UniProt P06756); test: cell-based or functional assay
[6] = test system: integrin-negative M21-L melanoma; test: In vivo NIR imaging of human melanoma xenograft, integrin-negative; set-up: species or system mice
From the text: as §1

Sequence of αvβ3 integrin (on KS1767 cells) (P06756 31-1048, chain 1 of 2): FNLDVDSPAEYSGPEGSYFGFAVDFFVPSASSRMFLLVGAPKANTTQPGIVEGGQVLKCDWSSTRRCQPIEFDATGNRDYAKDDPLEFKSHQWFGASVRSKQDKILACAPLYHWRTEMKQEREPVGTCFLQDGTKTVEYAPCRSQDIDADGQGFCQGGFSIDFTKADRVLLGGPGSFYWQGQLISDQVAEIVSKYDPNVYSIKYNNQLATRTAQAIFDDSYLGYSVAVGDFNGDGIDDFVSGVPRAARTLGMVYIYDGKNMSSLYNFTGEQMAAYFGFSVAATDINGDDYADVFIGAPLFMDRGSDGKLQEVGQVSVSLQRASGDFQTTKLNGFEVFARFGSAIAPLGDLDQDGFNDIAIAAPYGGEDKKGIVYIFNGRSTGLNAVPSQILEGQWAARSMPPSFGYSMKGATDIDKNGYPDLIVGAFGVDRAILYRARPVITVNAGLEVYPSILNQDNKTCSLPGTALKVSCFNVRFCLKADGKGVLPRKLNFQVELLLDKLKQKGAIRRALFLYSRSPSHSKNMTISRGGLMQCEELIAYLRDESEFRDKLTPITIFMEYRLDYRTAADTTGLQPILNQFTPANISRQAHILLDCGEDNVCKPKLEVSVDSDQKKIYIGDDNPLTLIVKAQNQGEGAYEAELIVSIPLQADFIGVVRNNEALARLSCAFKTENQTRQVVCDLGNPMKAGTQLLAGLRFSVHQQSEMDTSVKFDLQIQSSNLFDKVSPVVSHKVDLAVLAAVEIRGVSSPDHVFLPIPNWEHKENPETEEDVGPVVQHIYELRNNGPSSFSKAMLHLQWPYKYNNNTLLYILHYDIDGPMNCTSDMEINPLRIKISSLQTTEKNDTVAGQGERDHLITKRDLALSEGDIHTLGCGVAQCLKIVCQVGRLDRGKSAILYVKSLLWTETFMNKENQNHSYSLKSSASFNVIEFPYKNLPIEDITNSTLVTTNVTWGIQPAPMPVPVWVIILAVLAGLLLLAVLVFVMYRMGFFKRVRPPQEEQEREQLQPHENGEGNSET
Sequence of αvβ3 integrin (on KS1767 cells) (P05106 27-788, chain 2 of 2, further chain): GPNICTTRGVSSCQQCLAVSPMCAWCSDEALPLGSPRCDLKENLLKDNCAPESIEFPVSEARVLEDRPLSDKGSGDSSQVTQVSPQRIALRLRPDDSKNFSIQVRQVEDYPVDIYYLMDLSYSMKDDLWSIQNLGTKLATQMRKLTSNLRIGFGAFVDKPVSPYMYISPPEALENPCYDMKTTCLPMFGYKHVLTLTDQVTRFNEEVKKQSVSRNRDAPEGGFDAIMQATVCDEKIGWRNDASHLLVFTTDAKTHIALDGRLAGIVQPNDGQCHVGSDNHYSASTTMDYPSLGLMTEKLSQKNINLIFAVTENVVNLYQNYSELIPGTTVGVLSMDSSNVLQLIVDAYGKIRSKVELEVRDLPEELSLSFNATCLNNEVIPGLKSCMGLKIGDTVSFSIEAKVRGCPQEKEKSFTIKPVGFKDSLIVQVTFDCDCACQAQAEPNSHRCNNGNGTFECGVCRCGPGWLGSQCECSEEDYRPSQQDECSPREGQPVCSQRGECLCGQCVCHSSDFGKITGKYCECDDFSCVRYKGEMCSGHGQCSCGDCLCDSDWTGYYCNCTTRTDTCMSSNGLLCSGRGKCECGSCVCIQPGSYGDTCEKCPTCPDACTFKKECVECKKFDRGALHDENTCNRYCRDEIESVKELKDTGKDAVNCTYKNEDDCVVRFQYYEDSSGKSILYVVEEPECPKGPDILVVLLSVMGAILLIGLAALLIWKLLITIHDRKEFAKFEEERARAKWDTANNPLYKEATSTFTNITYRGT
T1 sequence (P06756 31-889 limits assumed): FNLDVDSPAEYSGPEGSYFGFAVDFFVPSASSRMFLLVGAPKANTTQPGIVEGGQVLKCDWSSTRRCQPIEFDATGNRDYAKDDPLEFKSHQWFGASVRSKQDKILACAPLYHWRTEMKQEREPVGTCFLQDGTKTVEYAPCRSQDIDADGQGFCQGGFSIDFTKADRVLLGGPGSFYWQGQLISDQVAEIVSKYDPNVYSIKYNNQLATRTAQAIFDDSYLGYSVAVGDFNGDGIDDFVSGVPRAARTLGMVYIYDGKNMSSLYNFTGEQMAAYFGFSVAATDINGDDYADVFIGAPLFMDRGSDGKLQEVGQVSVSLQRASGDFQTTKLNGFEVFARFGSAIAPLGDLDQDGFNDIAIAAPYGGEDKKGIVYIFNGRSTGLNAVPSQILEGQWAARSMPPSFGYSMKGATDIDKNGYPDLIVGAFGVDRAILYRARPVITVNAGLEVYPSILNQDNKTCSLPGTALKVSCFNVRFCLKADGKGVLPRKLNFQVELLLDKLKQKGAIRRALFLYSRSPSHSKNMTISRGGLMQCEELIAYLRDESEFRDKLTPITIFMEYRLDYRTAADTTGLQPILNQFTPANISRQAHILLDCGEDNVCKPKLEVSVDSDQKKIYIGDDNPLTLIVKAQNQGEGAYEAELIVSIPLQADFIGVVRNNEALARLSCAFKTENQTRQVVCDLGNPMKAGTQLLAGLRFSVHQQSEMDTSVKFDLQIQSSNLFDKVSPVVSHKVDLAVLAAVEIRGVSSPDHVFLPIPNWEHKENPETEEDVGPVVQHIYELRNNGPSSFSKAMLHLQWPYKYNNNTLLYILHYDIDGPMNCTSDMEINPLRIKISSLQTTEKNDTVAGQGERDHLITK
T1 sequence (P06756 891-1048 partner limits assumed): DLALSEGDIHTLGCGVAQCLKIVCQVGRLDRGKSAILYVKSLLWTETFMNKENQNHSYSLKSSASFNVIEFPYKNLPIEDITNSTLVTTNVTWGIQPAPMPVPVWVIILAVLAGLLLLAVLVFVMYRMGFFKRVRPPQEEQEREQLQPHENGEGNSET
T1 sequence (P05106 27-788): as the sequence (P05106 27-788, chain 2 of 2, further chain) above

Compound: N=C(N)NCCC[C@@H]1NC(=O)[C@H](CCCCN)NC(=O)[C@@H](Cc2ccccc2)NC(=O)[C@H](CC(=O)O)NC(=O)CNC1=O [c(KRGDf; SEQ ID NO. 3), cyclo(Lys-Arg-Gly-Asp-phe), reference compound]
- pIC50 (KS1767 cells): ~5.61
- Blockage of Cy5.5-c(KRGDf) binding to KS1767 cells (αvβ3 integrin; unconjugated peptide added one hour before 6 μM Cy5.5-c(KRGDf)): dose-dependent blockage
- Effect of pretreatment on uptake of fluorophores in KS1767 tumors (KS1767 tumors [1]; 100-fold c(KRGDf) injected 1 hour before Cy5.5-c(KRGDf)): blocked the uptake
- Effect of preinjection on uptake of Cy5.5-c(KRGDf) in the tumor (KS1767 tumors [2]; c(KRGDf) 600 nmol, interval between injections 1 hr): blocked the uptake

Compound: CC(C)C[C@@H]1NC(=O)[C@H]([C@@H](C)O)NC(=O)[C@H](Cc2ccccc2)NC(=O)CNC(=O)[C@H](Cc2c[nH]c3ccccc23)NC(=O)[C@H](Cc2c[nH]cn2)NC(=O)[C@H]([C@@H](C)O)NC(=O)[C@H]([C@@H](C)O)NC(=O)[C@H](C)NC(=O)CCNC1=O [c(ATTHWGFTLβA; SEQ ID NO. 2)] (HELM PEPTIDE1{A.T.T.H.W.G.F.T.L.[bAla]}$PEPTIDE1,PEPTIDE1,1:R1-10:R2$$$V2.0; bridges inferred)
- Degradation in culture medium [3]: no apparent degradation
- Degradation over the course of the study ([3]; 5 days): no degradation

Compound: CC1(C)C(/C=C/C2=C(Oc3ccc(S(=O)(=O)O)cc3)C(=C/C=C3/N(CCCCS(=O)(=O)O)c4ccc(S(=O)(=O)[O-])cc4C3(C)C)/CCC2)=[N+](CCCCCC(=O)O)c2ccc(S(=O)(=O)O)cc21 [IRDye800, reference compound]
- Visualization of tumor in NIR image [4]: did not have detectable signal

Compound: Cy5.5-c(KRGDf; SEQ ID NO. 3) (peptide)
- IC50 of inhibition of adhesion of KS1767 cells to vitronectin-coated microplate wells [5]: 1.11 µM

Compound: CC1(C)C(=CC=C2CCCC(C=CC3=[N+](CCCCS(=O)(=O)O)c4ccc(S(=O)(=O)[O-])cc4C3(C)C)=C2Oc2ccc(S(=O)(=O)O)cc2)N(CCCCCC(=O)NCCCC[C@@H]2NC(=O)[C@@H](Cc3ccccc3)NC(=O)[C@H](CC(=O)O)NC(=O)CNC(=O)[C@H](CCCNC(=N)N)NC2=O)c2ccc(S(=O)(=O)O)cc21 [IRDye800-c(KRGDf; SEQ ID NO. 3)]
- pIC50 (KS1767 cells): ~5.59
- Visualization of tumor in NIR image [4]: clearly visualized
- Tumor-to-background ratio ([4]; mice with M21 tumors, from fluorescence intensity in region-of-interest): 1.7
- Visualization of tumor in NIR image ([6]; M21-L melanoma, 24 hr after i.v. injection, 3 nmol/mouse): not
- Tumor-to-background ratio ([6]; mice with M21-L tumors, from fluorescence intensity in region-of-interest): 1.1

Compound: CC(C)C[C@@H]1NC(=O)[C@H]([C@@H](C)O)NC(=O)[C@H](Cc2ccccc2)NC(=O)CNC(=O)[C@H](Cc2c[nH]c3ccccc23)NC(=O)[C@H](Cc2c[nH]cn2)NC(=O)[C@H]([C@@H](C)O)NC(=O)[C@H]([C@@H](C)O)NC(=O)[C@@H](N)CSSC[C@@H](C(N)=O)NC1=O [c(CTTHWGFTLC; SEQ ID NO. 1), reference compound] (HELM PEPTIDE1{C.T.T.H.W.G.F.T.L.C.[am]}$PEPTIDE1,PEPTIDE1,1:R3-10:R3$$$V2.0)
- Degradation in culture medium [3]: degrades completely
- metabolised at 3 h, 1 mg/ml ([3]; serum-containing culture medium (DMEM/F-12 Ham with 10% FBS), after 3 hours, read-out: Peptide degraded): > 90%

Compound: cyclo(Lys-Arg-Gly-Asp-phe), c(KRGDf; SEQ ID NO. 3) (peptide)
- IC50 of inhibition of adhesion of KS1767 cells to vitronectin-coated microplate wells [5]: 2.47 µM

Compound: CC[N+]1=C(C=CC=CC=C2N(CCCCCC(=O)NCCCC[C@@H]3NC(=O)[C@@H](Cc4ccccc4)NC(=O)[C@H](CC(=O)O)NC(=O)CNC(=O)[C@H](CCCNC(=N)N)NC3=O)c3ccc4c(S(=O)(=O)O)cc(S(=O)(=O)O)cc4c3C2(C)C)C(C)(C)c2c1ccc1c(S(=O)(=O)[O-])cc(S(=O)(=O)O)cc21 [Cy5.5-c(KRGDf; SEQ ID NO. 3)]
- pIC50 (KS1767 cells): ~5.95
- In vitro binding to αvβ3 (αvβ3 integrin; KS1767 cells, 6 μM imaging agent): demonstrated
- Localization in excised tumor and adjacent muscle tissue (fluorescence microscopy) (KS1767 tumors [1]; ex vivo, KS1767 tumor excised 48 hr after i.v. injection): localized to the tumor, but not to the muscle cells
- Tumor targeting / uptake in NIR image (KS1767 tumors [1]; subcutaneous KS1767 tumors, i.v. 6 nmol/mouse, image 24 hours after injection): clearly showed targeting
- Rate of uptake in KS1767 tumors compared with muscle (KS1767 tumors [2]; 6 nmol/mouse i.v., dynamic imaging up to 20 min): faster
- Rate of uptake in the tumor after preinjection of c(KRGDf) (KS1767 tumors [2]; c(KRGDf) 600 nmol, interval between injections 24 hr): partially recovered
